Patent US12390423B2 (priority 2019, dated 2025)

Columns and labels:
[1] = Treatment model of diet-induced obesity (DIO) in mice: body and fat pad weights; format: in vivo, C57BL/6J mice; conditions: HFD mice, AvoB 100 mg/kg b.w. oral gavage twice weekly for 5 weeks, vs HFD-control
Procedure: For the treatment study, twelve-week-old male C57BL/6J mice were purchased from Jackson Laboratory (Bar Harbor, ME) and allowed to acclimatize for 1 week. After acclimatization, mice received either a high-fat diet (HFD) (60% kcal from lard; Research Diet D12492; Research Diets, USA) or a standard diet (10-13% kcal from fat; Teklad 2014; Envigo, USA) for eight weeks. […] Animal weights were monitored twice weekly. At study completion, animals were euthanized (10-12 h into their dark cycle) via CO2 followed by exsanguination, after which tissue and blood was collected.

[2] = system: pAkt-Ser473 and CPT-1A; test: Immunoblotting of gastrocnemius muscle lysates of DIO mice; format: in vivo, C57BL/6J mice
Procedure: For all cell culture experiments, after drug treatments cells were washed with chilled phosphate-buffered saline (PBS), and lysed in chilled lysis buffer with 1× protease inhibitor cocktail (Sigma). RIPA lysis buffer (Sigma-Aldrich) was used for INS-1 (832/13) cells and muscle lysis buffer for C2C12 myotubes (20 mM HEPES, 10 mM NaCl, 1.5 mM MgCl2, 1 mM DTT, 20% glycerol, and 0.1% Triton-X100). Cells were scraped, mechanically homogenized using a syringe and centrifuged at 14,000×g for 20 min at 4° C. and the supernatants were collected. For preparation of all gastrocnemius muscle lysates, 10 mg frozen tissue (wet weight) was washed in chilled PBS, placed in a dounce homogenizer, lysed in muscle lysis buffer and centrifuged at 14,000×g for 20 min at 4° C. and the supernatant was collected. Protein content for cell and tissue lysates was measured using the BCA protein assay kit (ThermoFisher) according to manufacturer's protocol. Thirty μg protein lysates were prepared in loading buffer and immunoblotting was performed by heating lysates for 5 minutes at 95° C. and subjecting them to gel electrophoresis on 10% SDS-polyacrylamide gels at 150 V for 75 minutes. Using a semi-dry transfer apparatus (Bio-Rad) the gels were then transferred at 25V for 45 minutes to a PVDF membrane and blocked with 5% BSA (Sigma) in tris-buffered saline-tween (TBS-T) for 1 hour. […]

[3] = Complete blood count and plasma FFA/TAG in DIO mice; format: in vivo
Procedure: Complete blood count with differential (CBC w/diff) analysis was done on 500 μL of whole blood by the animal health laboratory at the University of Guelph. Plasma insulin, FFAs, and triacylglycerols (TAGs) were measured using a rat/mouse insulin ELISA kit (Millipore, Rat/Mouse Insulin Detection kit), FFA fluorometric assay kit (Cayman, MI, USA), and the TAG colorimetric assay kit (Cayman, MI, USA), respectively. Manufacturer's protocols were followed for all kits.

[4] = system: INS-1 (832/13) cells; test: Cell viability (propidium iodide, flow cytometry) in INS-1 (832/13) cells; format: cell-based; conditions: AvoB 24 h
Procedure: Quantitative analysis of cell death was evaluated by flow cytometry using propidium iodide staining (Biovision, Mountainview, CA), where specified, according to the manufacturer's protocol and as previously described^28. Viable cells were identified as PI negative (PI−).

[5] = system: C2C12 myotubes; test: High resolution respirometry in C2C12 myotubes; format: cell-based, mouse; conditions: 25 μM AvoB
Procedure: Cells treated with test compounds for 24 h were trypsinized, counted, and resuspended in phosphate buffer saline (PBS). High-resolution O2 consumption measurements were conducted in 2 ml of respiration medium (PBS, pH 7.5, stir speed 750 rpm) using the Oroboros Oxygraph-2k (Oroboros Instruments, Corp., Innsbruck, Austria) set to 37° C. with a gain of 2 in both chambers. Briefly, after the injection of 5 million treated INS-1 (832/13) cells or C2C12 myotubes per chamber, basal respiration was measured once steady-state respiratory flux was obtained; this represents coupled respiration fueled by available substrates from the incubation with test compounds. Uncoupled respiration was then measured following addition of the ATP synthase inhibitor oligomycin (0.25 μM). This was followed by measuring maximal respiratory rate by stepwise titration of carbonyl cyanide p-trifluoromethoxy phenyl hydrazone (FCCP; within 0.1-0.25 μM) in the presence of 1 mmol/L pyruvate. […] Data was recorded with DatLab software (Oroboros Instruments, Innsbruck, Austria), oxygen consumption at each step of the protocol was normalized to vehicle control and illustrated in histograms. For all HRR protocols, cell viability was determined after trypsinization and also after end of HRR runs via trypan blue cell staining and counting using a hemocytometer. […]

[6] = ad libitum HFD mice, AvoB 100 mg/kg b.w. twice weekly, vs control-HFD, endpoint

avocatin B [AvoB]
Gonadal and mesenteric fat pad (GFP and MFP) weights [1]: reductions in both gonadal and mesenteric fat pad (GFP and MFP) weights
Mouse weight at study completion [1]: weighed significantly less than HFD-control mice
Phosphorylation of AKT Ser473 in gastrocnemius muscle ([2]; AvoB-treated-HFD mice vs HFD-control mice): increased phosphorylation of AKTSer473
CPT-1A protein level in gastrocnemius muscle ([2]; HFD-control mice compared to AVO-treated-HFD mice): higher protein levels of CPT-1A in gastrocnemius muscle compared to AVO-treated-HFD mice
Blood markers of toxicity (CBC w/diff) ([3]; HFD mice, AvoB 100 mg/kg b.w. twice weekly for 5 weeks, study endpoint): no effect on blood markers of toxicity
Plasma free fatty acids (FFA) [3, 6]: increased plasma levels of FFA
Plasma triacylglycerols (TAG) [3, 6]: increased
Cell viability [4]: no effect on cell viability
Glucose oxidation by HRR after 10 mM glucose (metabolic flexibility) ([5]; 0.25 mM palmitate 24 h, then 10 mM glucose 15 min): increased
Palmitate supported respiration (OCR, HRR) ([5]; 0.25 mM palmitate-BSA/1 mM L-carnitine, 24 h): inhibited palmitate supported basal and maximal-uncoupled respiration
